Measurements published in patent publication US6733971B2, “Method for identifying an agent that affects a hedgehog signaling pathway” (priority 1998, dated 2004).

Key:
ShhRE [1] = assay: ShhRE-tkCAT reporter mRNA and enzyme activity in P19 cells with cycloheximide; format: cell-based, mouse; conditions: 50 μM for 14 hours
Method: Methods described in Example 6 were used in addition to the following protocols. P19 cells were co-transfected with either three copies of the ShhRE or mutant ShhRE (mShhRE) element placed upstream of the tk-CAT along with tk-LUC plasmid as an internal control. Cells were treated with 1.0 nM Shh-N (12 hours) and with or without 50 μM cycloheximide (Chx) for 14 hours and harvested to obtain total RNA. Sixty μg of total RNA from these cells were used in an RNase protection assay. RNase protection assays were performed as described in Example 6. Specific riboprobes were generated to analyze the relative levels of the CAT and LUC mRNA levels. A 255 bp region of the CAT coding sequence or 123 bp of the luciferase coding region was used to generate an antisense riboprobe and was hybridized with 60 μg of total RNA, obtained from transfected P19 cells. The amount (50 μM) and extent (14 hours) of cycloheximide treatment was based on inhibition of protein synthesis as indicated by a significant loss in reporter enzyme activity.

ShhRE [2] = assay: EMSA of Shh-induced protein binding to radiolabeled ShhRE, P19 nuclear extracts; format: cell-based, mouse; conditions: 1.0 nM Shh-N, 24 hours
Method: Methods described in Example 6 were used in addition to the following protocols. P19 cells were treated with or without Shh-N for 24 hours and nuclear extracts were obtained and used in an electrophoretic mobility shift assay (EMSA) with radiolabeled ShhRE. The following oligos were used as competitors or probes in these assays; WT ShhRE—GTTCTACATAATGCGCCG—SEQ ID NO:1; mShhRE—GTTCTACgTgATGCGCCG—SEQ ID NO:3; GliRE—[…]—. SEQ ID NO:4, Different amounts of unlabeled Gli response element (GliRE) (FIG. 5C, lane 3, 100X; lane 4, 50X; lane 5, 25X; and lane 6, 10X) or ShhRE (lane 7; 100X, lane 8; 50X and lane 9; 10X) was used as a competitor at the indicated molar excess.
In EMSA, radiolabeled probe was incubated with the nuclear extracts (10 μg) along with 4 μg poly dG-dC in a binding reaction containing 10 mM Tris pH 7.5, 50 mM NaCl, 1 mM EDTA, 1 mM DTT, 0.1 mg/ml BSA, and 5% glycerol. Later the mixture was loaded onto a 5% polyacrylamide gel and the retarded complexes were separated-in 1× TBE buffer and analyzed using autoradiography.
(§1) P-19 cells were treated with phosphatase inhibitors to study the endogenous levels of COUP-TFII mRNA. […] Total RVA was isolated from these cells and 20 μg of RNA was used in a RNase protection assay as described above in Example 6. A region of the murine Cyclophilin A cDNA was used to generate riboprobe and was used as an internal control. P19 cells were co-treated with (FIG. 7C, lane 2, 4, 6, and 7) or without (FIG. 7C, lane 1, 3, and 5) 1.0 nM Shh-N and 5 nM OA (lane 3 and 4), 0.5 nM CyA (FIG. 7C, lane 5 & 6) or 5 nm NoA (FIG. 7C, lane 9). Cells were harvested after 24 hours of treatment and the nuclear extract was obtained for the binding reactions. Extracts were subjected to an EMSA as described earlier.

COUP-TFII mRNA = COUP-TFII mRNA in P19 cells, RNase protection assay; format: cell-based, mouse; conditions: for Shh-induced COUP-TFII mRNA: with 1.0 nM Shh-N
Method: The P19 mouse embryo carcinoma cell line which was earlier shown to contain increased levels of COUP-TF transcripts after retinoid treatment was utilized. Jonk, L. J. C., et al., Mechan. of Dev. (1994) 47:81-97). Conditioned media obtained from COS-1 cells transfected with mouse Shh-N cDNA expression plasmid or purified E. coli expressed recombinant Shh-N was used.
Briefly, a total of 20 μg RNA was hybridized to a 450 (FIG. 5A) or 120 (FIG. 7B) nucleotide riboprobe that corresponds to the 5′ untranslated region (UTR) of the COUP-TFII gene along with a 670 (FIG. 5A) or 102 (FIG. 7B) nucleotide riboprobe of the murine Cyclophilin A coding region. The RPA II™ kit from Ambion was used to perform the RNase protection assay. The products were subjected to RNase digestion and analyzed on a 6% urea polyacrylamide gel.
as §1

[3] = test system: PP1 and PP2A enzyme activity; assay: Protein phosphatase assay on nuclear extracts of control and Shh treated P19 cells; format: biochemical, mouse
Method: P19 cells were treated with or without 1 nM Shh for 36 hours and nuclear extracts from these cells were obtained as described earlier. A protein phosphatase assay system™ (Life Technologies, Bethesda) was used to quantitate the phosphatase activity present in the control and induced extracts. P19 cells were treated with or without 1 nM Shh for 36 hours and nuclear extracts from these cells were obtained and incubated with 2 nM OA or 4 nM Inh-2 protein for 15 minutes at 30° C. Results are expressed as mean±sd from three separate experiments.

lambda phosphatase = biological target: T1, lambda phosphatase (Escherichia phage lambda, UniProt P03772); assay: Lambda phosphatase treatment of immunoprecipitated Ci, mobility shift; format: biochemical; conditions: 1 mM sodium orthovanadate, 30° C. for 1 hour
T1 sequence (P03772 1-221): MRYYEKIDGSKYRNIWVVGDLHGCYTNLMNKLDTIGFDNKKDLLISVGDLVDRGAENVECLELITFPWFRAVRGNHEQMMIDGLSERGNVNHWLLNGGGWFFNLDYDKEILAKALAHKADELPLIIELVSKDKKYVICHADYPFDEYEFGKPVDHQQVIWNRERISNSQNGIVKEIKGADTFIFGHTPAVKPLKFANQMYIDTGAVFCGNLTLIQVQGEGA
Method: cl-8 cells were incubated in conditioned medium for 4 hours and lysed on ice for 20 minutes in 1 ml of NP-40 lysis buffer per T75 flask. The lysate was incubated with 100 μl of anti-Ci 2A1 or 0.3 μl of normal rat serum at 4° C. for 2 hours. 50 μl of 50% Protein G beads were added and incubated for 1 hour. The beads were collected and washed in NP-40 lysis buffer, then in lambda phosphatase buffer (50 mM Tris pH 7.8, 5 mM dithiothritol, 20 mM MnCl2, […] bovine serum albumin, 20 μg/ml aprotinin, 20 μg/ml leupeptin, 1 μg/ml pepstatin A, 2.5 μg/ml antipain, 100 μM PMSF). The beads were resuspended in 50 μl of lambda phosphatase buffer, plus 1 mM of sodium orthovanadate or 1.5 μl (30 unit) of lambda phosphatase according to the procedure. Each sample was incubated at 30° C. for 1 hour, then washed in NP-40 lysis buffer, and was boiled in SDS sample buffer for analysis.

phosphatase 1 (PP1) = conditions: read-out: IC50, phosphatase 1 (PP1) inhibition; cited from earlier work
Ci = Ci induction in cl-8 cells with or without HH-N conditioned medium, Western blot; format: cell-based, Drosophila; conditions: up to 100 nM, 4 hours, presence of HH or not
Method: cl-8 cells were cultured as described in Van Leeuwen, F., et al. Nature, 368:342-344, 1994. Culture and transfection of S2 cells were performed as described in Porter, J. A. et al. Cell, 86: 21-34, 1996. The conditioned medium was made by culturing transfected S2 cells in cl-8 medium, and induced by adding CUSO4, to the final concentration of 0.5 Mm overnight. The conditioned medium was harvested the next day, centrifuged to remove S2 cells and the supernatant was used. To make lysate from cl-8 cells, cl-8 cells were washed, harvested in cold phosphate buffered saline (PBS), and then resuspended in NP-40 lysis buffer (150 Mm NaCl, 50 Mm Tris pH8, 1% NP-40, 1 Mm EDTA, 20 μg/ml aprotinin, 20 μg/ml leupeptin, 1 μg/ml pepstatin A, 2.5 μg/ml antipain, 100 μM PMSF, 50 mM NaF, 5 mM Na2P4O7). Cells were lysed at 4° C. for 10 minutes, then centrifuged at 13,000×g for 10 minutes. The supernatant was saved for Western blot analysis.
SDS-PAGE and protein transfer were carried out by standard methods. The primary antibodies used were: rat monoclonal anti-Ci 2Al 1:20 dilution; mouse monoclonal anti-Ptc 1:1000 dilution; mouse monoclonal anti-actin 1:2500. Secondary antibodies were from Jackson Immunologicals. The filters were developed using SuperSignal from Pierce.
Tautomycin (TAU) and okadaic acid (OA) were purchased from Calbiochem and dissolved in dimethyl sulfoxide (DMSO) to different concentrations. The phosphatase inhibitors were mixed with conditioned medium and the concentration of DMSO was adjusted to 0.2% for each sample. cl-8 cells were incubated with conditioned medium and phosphatase inhibitor mixture for 4 hours and lysed for analysis.

## C[C@@H]1C[C@@H]([C@H](O)CC2CC(=O)NC(=O)C2)C(=O)[C@@H](C)C1 [cycloheximide]
ShhRE [1]
  CAT and luciferase activities: inhibited
ShhRE [1]; 1 nM Shh-N
  Shh-induced increase in CAT mRNA: not altered

## Nor-Okadone [NoA]
ShhRE [2]; 5 nM
  Shh-induced binding to radiolabeled ShhRE: unable to inhibit
COUP-TFII mRNA; 5 nM for 12 hours
  Shh-induced COUP-TFII mRNA: incapable of inhibiting

## Shh-N: purified E. coli expressed recombinant amino-terminal fragment of mouse Sonic hedgehog
[3]; 1 nM Shh, 36 hours, P19 nuclear extracts
  net increase in phosphatase activity after Shh treatment: 2 fold
COUP-TFII mRNA; P19 cells, 24 hours, densitometric analysis
  concentration at which a significant increase in COUP-TFII mRNA was observed: ≤ 0.2 nM

## [Na+].[Na+].[Na+].[O]=[V]([O-])([O-])[O-] [sodium orthovanadate]
Lambda phosphatase
  effect of lambda phosphatase on Ci mobility: reversed

## COC[C@@H]([C@H](O)[C@H](O)C(=O)NCC[C@H](C)c1nc(/C=C/C[C@@H]2O[C@]3(C[C@@H](O)[C@@H]2C)O[C@H]([C@H](C[C@H](O)[C@H](C)[C@H](O)[C@H](C)/C=C(C)/C(C)=C/C=C/C(C)=C\C#N)OC)[C@H](OP(=O)(O)O)C3(C)C)co1)N(C)C [CyA, calyculin A]
ShhRE [2]; 0.5 nM
  Shh-induced binding to radiolabeled ShhRE: abolished
COUP-TFII mRNA; 0.5 nM for 12 hours
  Shh-induced COUP-TFII mRNA: complete inhibition

## CO[C@H]([C@H](O)CC(=O)[C@@H](C)[C@@H](O)CC[C@@H](C)[C@@H]1O[C@]2(CC[C@@H](C)[C@H](CC[C@H](C)C(C)=O)O2)CC[C@@H]1C)[C@H](OC(=O)C[C@@H](O)C1=C(C)C(=O)OC1=O)C(C)C [TAU, Tautomycin]
Phosphatase 1 (PP1)
  IC50: 0.01 µM
Ci
  effect on Ci: did not to have any effect

B1: Inhibitor-2: Inh-2 protein, a specific inhibitor of PP1 (protein, UniProt P41236 2-205, looked up)
Protein phosphatase inhibitor …: AASTASHRPIKGILKNKTSTTSSMVASAEQPRGNVDEELSKKSQKWDEMNILATYHPADKDYGLMKIDEPSTPYHSMMGDDEDACSDTEATEAMAPDILARKLAAAEGLEPKYRIQEQESSGEEDSDLSPEEREKKRQFEMKRKLHYNEGLNIKLARQLISKDLHDDDEDEEMLETADGESMNTEESNQGSTPSDQQQNKLRSS
[3]; 4 nM Inh-2 protein, 15 minutes at 30° C.
  Shh-induced phosphatase activity: unable to inhibit
